Laboratory results published in PubChem BioAssay (NCI).
Several values for one entry are separate records, joined by “and”; a condition that tells them apart may be missing. Equal entries are not always repeated.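 These data come from cells grown in 96-well plates and exposed to compound for 48 hours at five concentrations. Abbreviation: GI50, concentration required for 50% inhibition of growth. TGI: total growth inhibition.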

What was measured:
Assay in all cases: NCI-60 cell line screen, 48 h; in the data active = GI50 below about 0.43 µM; inactive = the rest
OVCAR-3 ovarian = test system: OVCAR-3 ovarian
HOP-62 NSCLC = test system: HOP-62 NSCLC
ACHN renal = test system: ACHN renal
U251 CNS = test system: U251 CNS
SK-MEL-5 melanoma = test system: SK-MEL-5 melanoma
HCC-2998 colon = test system: HCC-2998 colon
MCF7 breast = test system: MCF7 breast
MALME-3M melanoma = test system: MALME-3M melanoma
NCI-H460 lung = test system: NCI-H460 lung
RXF 393 renal = test system: RXF 393 renal
EKVX NSCLC = test system: EKVX NSCLC
PC-3 prostate = test system: PC-3 prostate
M14 melanoma = test system: M14 melanoma
DU-145 prostate = test system: DU-145 prostate
K-562 leukemia = test system: K-562 leukemia
UACC-62 melanoma = test system: UACC-62 melanoma
T-47D breast = test system: T-47D breast
HL-60(TB) leukemia = test system: HL-60(TB) leukemia
HCT-15 colon = test system: HCT-15 colon
A498 renal = test system: A498 renal
HOP-92 NSCLC = test system: HOP-92 NSCLC
IGROV1 ovarian = test system: IGROV1 ovarian
MDA-MB-435 = test system: MDA-MB-435
HT29 colon = test system: HT29 colon
MDA-N = test system: MDA-N
NCI-H23 lung = test system: NCI-H23 lung
SF-268 CNS = test system: SF-268 CNS
A549 NSCLC = test system: A549 NSCLC
SK-MEL-28 melanoma = test system: SK-MEL-28 melanoma
SW-620 colon = test system: SW-620 colon
SK-MEL-2 melanoma = test system: SK-MEL-2 melanoma
BT-549 breast = test system: BT-549 breast
CAKI-1 renal = test system: CAKI-1 renal
SN12C renal = test system: SN12C renal
HCT-116 colon = test system: HCT-116 colon
OVCAR-8 ovarian = test system: OVCAR-8 ovarian
HS 578T breast = test system: HS 578T breast
CCRF-CEM leukemia = test system: CCRF-CEM leukemia
SR leukemia = test system: SR leukemia
MDA-MB-231 breast = test system: MDA-MB-231 breast
NCI-H522 lung = test system: NCI-H522 lung
LOX IMVI melanoma = test system: LOX IMVI melanoma
RPMI-8226 leukemia = test system: RPMI-8226 leukemia
KM12 colon = test system: KM12 colon
UACC-257 melanoma = test system: UACC-257 melanoma
UO-31 renal = test system: UO-31 renal
NCI/ADR-RES ovarian = test system: NCI/ADR-RES ovarian
786-0 renal = test system: 786-0 renal
SF-295 CNS = test system: SF-295 CNS
SK-OV-3 ovarian = test system: SK-OV-3 ovarian
SNB-75 CNS = test system: SNB-75 CNS
OVCAR-5 ovarian = test system: OVCAR-5 ovarian
SNB-19 CNS = test system: SNB-19 CNS
OVCAR-4 ovarian = test system: OVCAR-4 ovarian
TK-10 renal = test system: TK-10 renal
MOLT-4 leukemia = test system: MOLT-4 leukemia
COLO 205 colon = test system: COLO 205 colon
KM20L2 colon = test system: KM20L2 colon
DLD-1 colon = test system: DLD-1 colon
SNB-78 CNS = test system: SNB-78 CNS
SF-539 CNS = test system: SF-539 CNS
DMS 114 small cell lung = test system: DMS 114 small cell lung
M19-MEL melanoma = test system: M19-MEL melanoma
LXFL 529 NSCLC = test system: LXFL 529 NSCLC

CCCn1cnc2c(SCc3ccc(Cl)cc3)nc(N)nc21
33.8 µM: TGI (ACHN renal)
55.1 µM: TGI (TK-10 renal)
41.8 µM: TGI (UACC-257 melanoma)
57.8 µM: TGI (PC-3 prostate) | TGI (MDA-MB-435)
40.6 µM: TGI (NCI-H460 lung)
83.3 µM: TGI (SN12C renal)
52.8 µM: TGI (UACC-62 melanoma)
50.8 µM: TGI (LOX IMVI melanoma)
44.2 µM: TGI (HCT-116 colon)
83.4 µM: TGI (SK-MEL-28 melanoma)
45.9 µM: TGI (SF-295 CNS)
48.7 µM: TGI (HL-60(TB) leukemia)
48.2 µM: TGI (K-562 leukemia)
65.8 µM: TGI (MALME-3M melanoma)
43.5 µM: TGI (EKVX NSCLC) | TGI (HT29 colon)
33.4 µM: TGI (SK-MEL-5 melanoma)
> 100 µM: TGI (MCF7 breast) | TGI (RXF 393 renal) | TGI (DU-145 prostate) | TGI (T-47D breast) | TGI (HCT-15 colon) | TGI (HOP-92 NSCLC) | TGI (IGROV1 ovarian) | TGI (NCI-H23 lung) | TGI (SF-268 CNS) | TGI (A549 NSCLC) | TGI (SW-620 colon) | TGI (BT-549 breast) | TGI (OVCAR-8 ovarian) | TGI (HS 578T breast) | TGI (CCRF-CEM leukemia) | TGI (UO-31 renal) | TGI (786-0 renal) | TGI (SK-OV-3 ovarian) | TGI (OVCAR-5 ovarian) | TGI (SNB-19 CNS) | TGI (OVCAR-4 ovarian)
40.2 µM: TGI (RPMI-8226 leukemia)
81.5 µM: TGI (M14 melanoma)
52.5 µM: TGI (HCC-2998 colon)
36.9 µM: TGI (NCI-H522 lung)
55 µM: TGI (MDA-N)
88.7 µM: TGI (SNB-75 CNS)
73.2 µM: TGI (NCI/ADR-RES ovarian)
41.3 µM: TGI (OVCAR-3 ovarian) | TGI (SK-MEL-2 melanoma)
60.1 µM: TGI (MDA-MB-231 breast)
44.4 µM: TGI (HOP-62 NSCLC)
74.5 µM: TGI (U251 CNS)
49.1 µM: TGI (A498 renal)
34.8 µM: TGI (SR leukemia)
82 µM: TGI (CAKI-1 renal)
58.9 µM: TGI (KM12 colon)

c1ccc(NCCSc2nc3ccccc3s2)cc1
82.4 µM: TGI (MOLT-4 leukemia)
42.3 µM: TGI (SK-MEL-5 melanoma)
31.7 µM: TGI (CCRF-CEM leukemia)
41.8 µM: TGI (COLO 205 colon)
> 100 µM: TGI (OVCAR-3 ovarian) | TGI (HOP-62 NSCLC) | TGI (ACHN renal) | TGI (U251 CNS) | TGI (MCF7 breast) | TGI (MALME-3M melanoma) | TGI (NCI-H460 lung) | TGI (RXF 393 renal) | TGI (EKVX NSCLC) | TGI (PC-3 prostate) | TGI (M14 melanoma) | TGI (DU-145 prostate) | TGI (K-562 leukemia) | TGI (UACC-62 melanoma) | TGI (T-47D breast) | TGI (HL-60(TB) leukemia) | TGI (A498 renal) | TGI (HOP-92 NSCLC) | TGI (IGROV1 ovarian) | TGI (MDA-MB-435) | TGI (HT29 colon) | TGI (MDA-N) | TGI (NCI-H23 lung) | TGI (SF-268 CNS) | TGI (A549 NSCLC) | TGI (SK-MEL-28 melanoma) | TGI (SW-620 colon) | TGI (SK-MEL-2 melanoma) | TGI (BT-549 breast) | TGI (CAKI-1 renal) | TGI (SN12C renal) | TGI (HCT-116 colon) | TGI (OVCAR-8 ovarian) | TGI (HS 578T breast) | TGI (SR leukemia) | TGI (MDA-MB-231 breast) | TGI (NCI-H522 lung) | TGI (LOX IMVI melanoma) | TGI (RPMI-8226 leukemia) | TGI (KM12 colon) | TGI (UO-31 renal) | TGI (NCI/ADR-RES ovarian) | TGI (786-0 renal) | TGI (SF-295 CNS) | TGI (SK-OV-3 ovarian) | TGI (SNB-75 CNS) | TGI (OVCAR-5 ovarian) | TGI (SNB-19 CNS) | TGI (OVCAR-4 ovarian)
77 µM: TGI (UACC-257 melanoma)
43 µM: TGI (HCT-15 colon)
77.4 µM: TGI (TK-10 renal)

NCCN.O=C([O-])[O-].O=C([O-])[O-].[Co+3].[K+]
> 100 µM: TGI (OVCAR-3 ovarian) | TGI (HOP-62 NSCLC) | TGI (ACHN renal) | TGI (U251 CNS) | TGI (KM20L2 colon) | TGI (MOLT-4 leukemia) | TGI (SK-MEL-5 melanoma) | TGI (MALME-3M melanoma) | TGI (NCI-H460 lung) | TGI (EKVX NSCLC) | TGI (M14 melanoma) | TGI (COLO 205 colon) | TGI (K-562 leukemia) | TGI (UACC-62 melanoma) | TGI (HL-60(TB) leukemia) | TGI (HCT-15 colon) | TGI (DLD-1 colon) | TGI (A498 renal) | TGI (HOP-92 NSCLC) | TGI (IGROV1 ovarian) | TGI (SNB-78 CNS) | TGI (HT29 colon) | TGI (NCI-H23 lung) | TGI (SF-539 CNS) | TGI (SF-268 CNS) | TGI (A549 NSCLC) | TGI (SK-MEL-28 melanoma) | TGI (SW-620 colon) | TGI (SK-MEL-2 melanoma) | TGI (DMS 114 small cell lung) | TGI (SN12C renal) | TGI (HCT-116 colon) | TGI (OVCAR-8 ovarian) | TGI (M19-MEL melanoma) | TGI (CCRF-CEM leukemia) | TGI (NCI-H522 lung) | TGI (LOX IMVI melanoma) | TGI (RPMI-8226 leukemia) | TGI (KM12 colon) | TGI (LXFL 529 NSCLC) | TGI (UACC-257 melanoma) | TGI (UO-31 renal) | TGI (786-0 renal) | TGI (SF-295 CNS) | TGI (SK-OV-3 ovarian) | TGI (SNB-75 CNS) | TGI (OVCAR-5 ovarian) | TGI (SNB-19 CNS) | TGI (OVCAR-4 ovarian) | TGI (TK-10 renal)
inactive: GI50 (OVCAR-3 ovarian) > 100 µM | GI50 (HOP-62 NSCLC) > 100 µM | GI50 (ACHN renal) > 100 µM | GI50 (U251 CNS) > 100 µM | GI50 (KM20L2 colon) > 100 µM | GI50 (MOLT-4 leukemia) > 100 µM | GI50 (SK-MEL-5 melanoma) > 100 µM | GI50 (MALME-3M melanoma) > 100 µM | GI50 (NCI-H460 lung) > 100 µM | GI50 (EKVX NSCLC) > 100 µM | GI50 (M14 melanoma) > 100 µM | GI50 (COLO 205 colon) > 100 µM | GI50 (K-562 leukemia) > 100 µM | GI50 (UACC-62 melanoma) > 100 µM | GI50 (HL-60(TB) leukemia) > 100 µM | GI50 (HCT-15 colon) > 100 µM | GI50 (DLD-1 colon) > 100 µM | GI50 (A498 renal) > 100 µM | GI50 (HOP-92 NSCLC) 49.4 µM and 75.2 µM | GI50 (IGROV1 ovarian) > 100 µM | GI50 (SNB-78 CNS) > 100 µM | GI50 (HT29 colon) > 100 µM | GI50 (NCI-H23 lung) > 100 µM | GI50 (SF-539 CNS) > 100 µM | GI50 (SF-268 CNS) > 100 µM | GI50 (A549 NSCLC) > 100 µM | GI50 (SK-MEL-28 melanoma) > 100 µM | GI50 (SW-620 colon) > 100 µM | GI50 (SK-MEL-2 melanoma) > 100 µM | GI50 (DMS 114 small cell lung) > 100 µM | GI50 (SN12C renal) > 100 µM | GI50 (HCT-116 colon) > 100 µM | GI50 (OVCAR-8 ovarian) > 100 µM | GI50 (M19-MEL melanoma) > 100 µM | GI50 (CCRF-CEM leukemia) > 100 µM | GI50 (NCI-H522 lung) > 100 µM | GI50 (LOX IMVI melanoma) > 100 µM | GI50 (RPMI-8226 leukemia) > 100 µM | GI50 (KM12 colon) > 100 µM | GI50 (LXFL 529 NSCLC) > 100 µM | GI50 (UACC-257 melanoma) > 100 µM | GI50 (UO-31 renal) > 100 µM | GI50 (786-0 renal) > 100 µM | GI50 (SF-295 CNS) > 100 µM | GI50 (SK-OV-3 ovarian) > 100 µM | GI50 (SNB-75 CNS) > 100 µM and 72.3 µM | GI50 (OVCAR-5 ovarian) > 100 µM | GI50 (SNB-19 CNS) > 100 µM | GI50 (OVCAR-4 ovarian) > 100 µM | GI50 (TK-10 renal) > 100 µM
